Some test systems named below: NCI-H226; KM12; Hs-578T; HL-60; T47D; 786-0; NCI-H23; SNB-75; SNB-19; SK-MEL-5; OVCAR-4; SK-MEL-2; UO-31; SK-OV-3; RXF 393; HCT-116; NCI/ADR-RES; SR; CAKI-1; OVCAR-8.
Assay in all cases: growth of human tumour cells (NCI), 48 h

The structures appear in SMILES notation.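 Dose response: 5 concentrations. Exposure: 48 h. Format: 96-well plates. Endpoint: linear interpolation; highest concentration if not reached. GI50 is the concentration that inhibits growth by half.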 The source made the active and inactive calls. No stated cut-off is given here; in the data, active = GI50 up to about 1.1 µM and inactive = higher.

Take `CC(C)C(Sc1nc(N)nc2nc[nH]c12)C(=O)O` (stereo not given): the GI50 in the test with NCI-H226, in the test with KM12, in the test on Hs-578T, in the test with HL-60, in the test on T47D and in the test with 786-0 was > 100 µM (inactive) in each case. Also, the GI50 in the test with NCI-H23, in the test with SNB-75, with SNB-19, in the test on SK-MEL-5, in the test on OVCAR-4 and in the test on SK-MEL-2 was > 100 µM (inactive) each time. Also, the GI50 with UO-31, with SK-OV-3, in the test on RXF 393, in the test on HCT-116, in the test with NCI/ADR-RES and in the test with SR was > 100 µM (inactive) in each case. In addition, the GI50 in the test on CAKI-1 and with OVCAR-8 was > 100 µM (inactive) each time.
With `COC(=O)C1=C(C)NC2(O)C=CC(=O)C3C(=O)N(c4ccccc4)C(=O)C132` (stereo not given), the GI50 in the test on NCI-H226 is > 100 µM (inactive); in the test with KM12, > 100 µM (inactive); in the test with Hs-578T, > 100 µM (inactive); in the test with HL-60 it was 63.8 µM (inactive); in the test with T47D, 36.8 µM (inactive); with 786-0, 98.2 µM (inactive). The GI50 in the test on NCI-H23, in the test with SNB-75, with SNB-19, with SK-MEL-5, with OVCAR-4 and with SK-MEL-2 was > 100 µM (inactive) each time. Also, the GI50 with UO-31 is > 100 µM (inactive); with SK-OV-3, > 100 µM (inactive); in the test with RXF 393, 83.4 µM (inactive); with HCT-116 it was 73.6 µM (inactive); with NCI/ADR-RES it was > 100 µM (inactive); with SR it was 76.4 µM (inactive). Moreover, the GI50 in the test on CAKI-1 and in the test with OVCAR-8 was > 100 µM (inactive) throughout.
Take `Cc1ccccc1NC(=S)N/N=C(/c1ccccc1)c1ccccn1`: the GI50 in the test on NCI-H226 was 0.0295 µM (active); with KM12, 0.0405 µM (active); in the test on Hs-578T, 13.2 µM (inactive); in the test with HL-60, < 0.0736 µM (active); in the test with T47D it was < 0.01 µM (active); in the test on 786-0, < 0.0214 µM (active). The GI50 is < 0.01 µM (active) in the test on NCI-H23; 0.933 µM (active) in the test with SNB-75; 1.62 µM (inactive) in the test on SNB-19; 0.0664 µM (active) in the test on SK-MEL-5; 0.0826 µM (active) in the test with OVCAR-4; 3.36 µM (inactive) with SK-MEL-2. In addition, the GI50 in the test with UO-31 is 0.0266 µM (active); with SK-OV-3, 0.0128 µM (active); in the test on RXF 393, 0.589 µM (active); with HCT-116, < 0.01 µM (active); in the test with NCI/ADR-RES it was < 0.0187 µM (active); in the test with SR it was < 0.0262 µM (active). In addition, the GI50 with CAKI-1 was 0.0743 µM (active); in the test with OVCAR-8 it was 0.0279 µM (active).
On to `COc1ccc(Nc2nn3c(=O)c4c(C)c(C)sc4nc3s2)cc1`, for which the GI50 is 67.8 µM (inactive) with NCI-H226; 44.8 µM (inactive) with KM12; 79.1 µM (inactive) in the test on Hs-578T; 97.5 µM (inactive) with HL-60; 25.7 µM (inactive) in the test on T47D; 23.2 µM (inactive) with 786-0. The GI50 in the test with NCI-H23 is 18.7 µM (inactive); in the test with SNB-75, 22.7 µM (inactive); with SNB-19, 47.6 µM (inactive); with SK-MEL-5 it was 41.1 µM (inactive); in the test with OVCAR-4 it was 24.4 µM (inactive); in the test on SK-MEL-2 it was 35.6 µM (inactive). Further, the GI50 in the test with UO-31 is 18 µM (inactive); in the test on SK-OV-3, 26.6 µM (inactive); in the test on RXF 393 it was 19.7 µM (inactive); in the test with HCT-116 it was 26.7 µM (inactive); in the test with NCI/ADR-RES, 39.1 µM (inactive); in the test on SR, 9.84 µM (inactive). Besides, the GI50 in the test on CAKI-1 was 39.3 µM (inactive); in the test with OVCAR-8, 49.1 µM (inactive).
In the case of `O=c1[nH][nH]c(=O)n1Cc1ccccc1`, the GI50 with NCI-H226, with KM12, in the test with Hs-578T, in the test on HL-60, in the test on T47D and in the test with 786-0 was > 100 µM (inactive) each time. Besides, the GI50 in the test on NCI-H23, with SNB-75, with SNB-19, with SK-MEL-5, in the test on OVCAR-4 and in the test with SK-MEL-2 was > 100 µM (inactive) throughout. Moreover, the GI50 in the test on UO-31, in the test on SK-OV-3, with RXF 393, in the test with HCT-116, in the test with NCI/ADR-RES and in the test with SR was > 100 µM (inactive) throughout. Besides, the GI50 with CAKI-1 and in the test on OVCAR-8 was > 100 µM (inactive) each time.
Regarding `CC(=O)CC1CCC(=O)/C=C/C(=O)OC(CC(C)=O)CCC(=O)/C=C/C(=O)O1` (stereo not given), the GI50 is 33 µM (inactive) in the test with NCI-H226; 20.8 µM (inactive) with KM12; 27.9 µM (inactive) in the test with Hs-578T; 2.45 µM (inactive) in the test with HL-60; 2.09 µM (inactive) in the test with T47D; 5.15 µM (inactive) in the test with 786-0. The GI50 in the test on NCI-H23 is 17.5 µM (inactive); with SNB-75, 12.8 µM (inactive); with SNB-19, 19.8 µM (inactive); in the test on SK-MEL-5, 13.8 µM (inactive); with OVCAR-4 it was 7.83 µM (inactive); with SK-MEL-2, 6.61 µM (inactive). The GI50 was 12.6 µM (inactive) with UO-31; 20.7 µM (inactive) in the test on SK-OV-3; 3.22 µM (inactive) with RXF 393; 4.1 µM (inactive) with HCT-116; 19.9 µM (inactive) in the test on NCI/ADR-RES; 2.23 µM (inactive) in the test with SR. Moreover, the figures for the GI50 in the test on CAKI-1 and in the test with OVCAR-8 were 6.53 µM (inactive) and 19.3 µM (inactive), respectively.
In the case of `O=C(CCc1ccccc1CO)NCCc1ccccc1`, the GI50 is > 100 µM (inactive) in the test on NCI-H226; > 100 µM (inactive) with KM12; 20 µM (inactive) with Hs-578T; 72.4 µM (inactive) with HL-60; > 100 µM (inactive) in the test on T47D; > 100 µM (inactive) in the test on 786-0. Besides, the GI50 with NCI-H23 is > 100 µM (inactive); in the test with SNB-75 it was 49.1 µM (inactive); in the test with SNB-19, 15.9 µM (inactive); with SK-MEL-5, > 100 µM (inactive); in the test on OVCAR-4, 59.6 µM (inactive); in the test on SK-MEL-2, > 100 µM (inactive). The GI50 with UO-31 is 36.5 µM (inactive); with SK-OV-3 it was > 100 µM (inactive); in the test with RXF 393 it was > 100 µM (inactive); in the test on HCT-116, > 100 µM (inactive); with NCI/ADR-RES, > 100 µM (inactive); in the test with SR, > 100 µM (inactive). Besides, the GI50 with CAKI-1 and in the test on OVCAR-8 was > 100 µM (inactive) each time.
Regarding `Nc1c(S(=O)(=O)O)cc(Nc2cccc(S(N)(=O)=O)c2)c2c1C(=O)c1ccccc1C2=O`, the GI50 was > 100 µM (inactive) with NCI-H226; 71.6 µM (inactive) in the test on KM12; 29 µM (inactive) with Hs-578T; > 100 µM (inactive) with HL-60; > 100 µM (inactive) in the test on T47D; 62.5 µM (inactive) with 786-0. Moreover, the GI50 in the test with NCI-H23 was 35.1 µM (inactive); in the test on SNB-75 it was 29.6 µM (inactive); with SNB-19 it was > 100 µM (inactive); in the test with SK-MEL-5, 37.5 µM (inactive); in the test on OVCAR-4, > 100 µM (inactive); with SK-MEL-2, 75.7 µM (inactive). Besides, the GI50 was 97.3 µM (inactive) in the test with UO-31; 27.5 µM (inactive) in the test on SK-OV-3; 74.3 µM (inactive) with RXF 393; > 100 µM (inactive) in the test with HCT-116; > 100 µM (inactive) in the test on NCI/ADR-RES; > 100 µM (inactive) with SR. Moreover, the GI50 with CAKI-1 and in the test on OVCAR-8 was > 100 µM (inactive) each time.
Consider `Cc1nc(O)c(O)c(CN2CCCCC2)n1`, for which the GI50 in the test with NCI-H226 was > 100 µM (inactive); with KM12 it was > 100 µM (inactive); with Hs-578T it was > 100 µM (inactive); in the test on HL-60, 42.7 µM (inactive); in the test on T47D, > 100 µM (inactive); in the test on 786-0, > 100 µM (inactive). Moreover, the GI50 with NCI-H23, with SNB-75, with SNB-19, with SK-MEL-5, in the test on OVCAR-4 and in the test on SK-MEL-2 was > 100 µM (inactive) in each case. In addition, the GI50 in the test with UO-31, in the test on SK-OV-3, in the test with RXF 393, in the test with HCT-116, with NCI/ADR-RES and in the test with SR was > 100 µM (inactive) each time. For the same molecule, the GI50 in the test with CAKI-1 and in the test with OVCAR-8 was > 100 µM (inactive) each time.
Turning to `CC[C@@]1(O)C(=O)OCc2c1cc1n(c2=O)Cc2c-1nc1ccccc1c2/C=N\NC(=O)C[n+]1ccccc1`, the GI50 is 0.991 µM (active) in the test on NCI-H226; 8.55 µM (inactive) in the test with KM12; > 64.1 µM (inactive) with Hs-578T; 0.225 µM (active) in the test on HL-60; 0.0346 µM (active) with T47D; 0.231 µM (active) with 786-0. The GI50 with NCI-H23 is 0.388 µM (active); with SNB-75 it was 0.23 µM (active); in the test with SNB-19, 0.267 µM (active); with SK-MEL-5 it was 0.366 µM (active); with OVCAR-4 it was 8.57 µM (inactive); in the test with SK-MEL-2, 37.6 µM (inactive). The GI50 in the test on UO-31 is 0.29 µM (active); in the test on SK-OV-3, 0.617 µM (active); in the test on RXF 393, 0.76 µM (active); with HCT-116, 0.783 µM (active); in the test with NCI/ADR-RES it was 0.817 µM (active); in the test with SR it was 0.0411 µM (active). For the same molecule, the GI50 is 0.151 µM (active) in the test on CAKI-1 and 0.398 µM (active) in the test on OVCAR-8.

The values above are taken from ChEMBL document CHEMBL1201862, “PubChem BioAssay data set” (2004).
